Biological target: human GOAT (Homo sapiens (Human), UniProt Q96T53)
Experiment: Determination of hGOAT Activity in HEK293 Cells after Incubation with Test Compound
Format: cell-based
Details: HEK293 cells stably transfected with preproghrelin and human GOAT; octanoate-BSA 100 μM; acyl-ghrelin in medium by ELISA after 5 hours
In short: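 HEK293 cells stably expressing preproghrelin and human GOAT were given serum-free medium with 100 μM octanoate-BSA plus compound (0.3% DMSO) for 5 h. Acyl-ghrelin in the medium was quantified by ELISA (A405, standard curve) as % of vehicle. IC50 was fitted from 8 concentrations.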

human GOAT, sequence (Q96T53 whole entry): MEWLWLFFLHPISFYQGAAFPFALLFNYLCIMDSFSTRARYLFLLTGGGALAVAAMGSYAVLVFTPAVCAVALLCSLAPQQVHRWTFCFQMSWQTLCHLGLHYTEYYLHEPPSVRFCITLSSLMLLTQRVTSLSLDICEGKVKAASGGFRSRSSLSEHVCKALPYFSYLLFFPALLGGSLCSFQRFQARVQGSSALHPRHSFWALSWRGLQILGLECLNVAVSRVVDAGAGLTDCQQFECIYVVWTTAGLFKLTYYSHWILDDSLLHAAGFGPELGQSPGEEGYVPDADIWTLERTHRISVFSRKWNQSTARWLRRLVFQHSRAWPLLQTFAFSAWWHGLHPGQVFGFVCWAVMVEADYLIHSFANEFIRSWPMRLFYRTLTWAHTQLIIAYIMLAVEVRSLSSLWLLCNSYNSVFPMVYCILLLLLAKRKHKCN

Compound | IC50 [nM]
Cc1nc2nonc2c(N)c1Cc1ccc(C#N)c(C2CC2)n1 [Example 43, 6-(7-amino-5-methyl-[1,2,5]oxadiazolo[3,4-b]pyridin-6-ylmethyl)-2-cyclopropylpyridine-3-carbonitrile] | 0.37
Cc1nc2nonc2c(N)c1Cc1ccc(OCCF)c(C#N)n1 [Example 115, 6-(7-Amino-5-methyl-[1,2,5]oxadiazolo[3,4-b]pyridin-6-ylmethyl)-3-(2-fluoro-ethoxy)-pyridine-2-carbonitrile] | 1.2
Cc1nc2nonc2c(N)c1Cc1ncc(C(F)(F)F)c(Cl)n1 [Example 50, 6-[4-chloro-5-(trifluoromethyl)pyrimidin-2-yl]methyl-5-methyl-[1,2,5]oxadiazolo[3,4-b]pyridin-7-amine] | 2.5
Cc1nc2nonc2c(N)c1Cc1ccc(C(C)(F)F)cn1 [Example 11, 6-[5-(1,1-Difluoro-ethyl)-pyridin-2-ylmethyl]-5-methyl-[1,2,5]oxadiazolo[3,4-b]pyridin-7-ylamine] | 0.13
Cc1cnn(C)c1-c1ccc(Cc2c(C)nc3nonc3c2N)nc1N [Example 68, 6-[6-Amino-5-(2,4-dimethyl-2H-pyrazol-3-yl)-pyridin-2-ylmethyl]-5-methyl-[1,2,5]oxadiazolo[3,4-b]pyridin-7-ylamine] | 0.11
Cc1nc2nonc2c(N)c1Cc1ccc(Cl)c(C#N)n1 [Example 47, 6-(7-amino-5-methyl-[1,2,5]oxadiazolo[3,4-b]pyridin-6-ylmethyl)-3-chloropyridine-2-carbonitrile] | 2.4
Cc1nc2nonc2c(N)c1Cc1ccc(Br)c(OCCF)n1 [Example 100, 6-[5-Bromo-6-(2-fluoro-ethoxy)-pyridin-2-ylmethyl]-5-methyl-[1,2,5]oxadiazolo[3,4-b]pyridin-7-ylamine] | 0.034
Cc1nc2nonc2c(N)c1Cc1ccc(C#N)c(NCC(C)(C)C(N)=O)n1 [Example 148, 3-[6-(7-Amino-5-methyl-[1,2,5]oxadiazolo[3,4-b]pyridin-6-ylmethyl)-3-cyano-pyridin-2-ylamino]-2,2-dimethyl-propionamide] | 0.15
Cc1nc2nonc2c(N)c1Cc1ncc(C#N)c(N)n1 [Example 45, 4-amino-2-(7-amino-5-methyl-[1,2,5]oxadiazolo[3,4-b]pyridin-6-ylmethyl)pyrimidine-5-carbonitrile] | 1.2
Cc1nc2nonc2c(N)c1Cc1cc(C(F)(F)F)ccn1 [Example 26, 5-Methyl-6-(4-trifluoromethyl-pyridin-2-ylmethyl)-[1,2,5]oxadiazolo[3,4-b]pyridin-7-ylamine] | 8.8
Cc1nc2nonc2c(N)c1Cc1ccc(OC2CC2)cn1 [Example 41, 6-[(5-cyclopropoxypyridin-2-yl)methyl]-5-methyl-[1,2,5]oxadiazolo[3,4-b]pyridin-7-amine] | 1.2
Cc1nc2nonc2c(N)c1Cc1ccc(Br)c(N2CC(C)(O)C2)n1 [Example 122, 1-[6-(7-Amino-5-methyl-[1,2,5]oxadiazolo[3,4-b]pyridin-6-ylmethyl)-3-bromo-pyridin-2-yl]-3-methyl-azetidin-3-ol] | 0.033
Cc1nc2nonc2c(N)c1Cc1ccc(Oc2ccnn2C)c(C#N)n1 [Example 117, 6-(7-Amino-5-methyl-[1,2,5]oxadiazolo[3,4-b]pyridin-6-ylmethyl)-3-(2-methyl-2H-pyrazol-3-yloxy)-pyridine-2-carbonitrile] | 0.19
Cc1nc2nonc2c(N)c1Cc1ccc(OCC(F)F)c(C#N)n1 [Example 116, 6-(7-Amino-5-methyl-[1,2,5]oxadiazolo[3,4-b]pyridin-6-ylmethyl)-3-(2,2-difluoro-ethoxy)-pyridine-2-carbonitrile] | 0.83
Cc1nc2nonc2c(N)c1Cc1nccc(C#N)n1 [Example 51, 2-(7-amino-5-methyl-[1,2,5]oxadiazolo[3,4-b]pyridin-6-ylmethyl)pyrimidine-4-carbonitrile] | 20
Cc1nc2nonc2c(N)c1Cc1ccc(Br)c(OC2COC2)n1 [Example 98, 6-[5-Bromo-6-(oxetan-3-yloxy)-pyridin-2-ylmethyl]-5-methyl-[1,2,5]oxadiazolo[3,4-b]pyridin-7-ylamine] | 1.9
Cc1nc2nonc2c(N)c1Cc1ncc(C(F)(F)F)c(N)n1 [Example 46, 2-(7-amino-5-methyl-[1,2,5]oxadiazolo[3,4-b]pyridin-6-ylmethyl)-5-(trifluoromethyl)pyrimidin-4-amine] | 0.22
Cc1nc2nonc2c(N)c1Cc1ncc(Cl)cn1 [Example 30, 6-(5-Chloro-pyrimidin-2-ylmethyl)-5-methyl-[1,2,5]oxadiazolo[3,4-b]pyridin-7-ylamine] | 2.7

Continued, values first:

IC50 [nM] | Compound
0.074 | Cc1nc2nonc2c(N)c1Cc1ccc(Br)c(OCCCF)n1 [Example 101, 6-[5-Bromo-6-(3-fluoro-propoxy)-pyridin-2-ylmethyl]-5-methyl-[1,2,5]oxadiazolo[3,4-b]pyridin-7-ylamine]
0.38 | Cc1nc2nonc2c(N)c1Cc1ncc(Cl)c(C(F)F)n1 [Example 166, 6-[5-chloro-4-(difluoromethyl)pyrimidin-2-yl]methyl-5-methyl-[1,2,5]oxadiazolo[3,4-b]pyridin-7-amine]
0.18 | Cc1nc2nonc2c(N)c1Cc1ccc(C(F)(F)F)c(C#N)n1 [Example 48, 6-(7-Amino-5-methyl-[1,2,5]oxadiazolo[3,4-b]pyridin-6-ylmethyl)-3-trifluoromethyl-pyridine-2-carbonitrile]
1.4 | COc1ccc(Cc2c(C)nc3nonc3c2N)nc1 [Example 1, 6-(5-Methoxy-pyridin-2-ylmethyl)-5-methyl-[1,2,5]oxadiazolo[3,4-b]pyridin-7-ylamine]
6.5 | Cc1nc2nonc2c(N)c1Cc1ccc(F)cn1 [Example 12, 6-(5-Fluoro-pyridin-2-ylmethyl)-5-methyl-[1,2,5]oxadiazolo[3,4-b]pyridin-7-ylamine]
0.073 | Cc1nc2nonc2c(N)c1Cc1ccc(C2CC2)c(C#N)n1 [Example 42, 6-(7-amino-5-methyl-[1,2,5]oxadiazolo[3,4-b]pyridin-6-ylmethyl)-3-cyclopropylpyridine-2-carbonitrile]
4.4 | Cc1nc2nonc2c(N)c1Cc1cccc(F)n1 [Example 13, 6-(6-Fluoro-pyridin-2-ylmethyl)-5-methyl-[1,2,5]oxadiazolo[3,4-b]pyridin-7-ylamine]
1.8 | Cc1nc2nonc2c(N)c1Cc1ncc(C(F)(F)F)cn1 [Example 35, 5-methyl-6-[5-(trifluoromethyl)pyrimidin-2-yl]methyl-[1,2,5]oxadiazolo[3,4-b]pyridin-7-amine]
0.082 | Cc1nc2nonc2c(N)c1Cc1ccc(OC(F)F)c(C#N)n1 [Example 70, 6-(7-Amino-5-methyl-[1,2,5]oxadiazolo[3,4-b]pyridin-6-ylmethyl)-3-difluoromethoxy-pyridine-2-carbonitrile]
3.9 | Cc1nc2nonc2c(N)c1Cc1cccc(C(=O)N(C)C)n1 [Example 55, 6-(7-Amino-5-methyl-[1,2,5]oxadiazolo[3,4-b]pyridin-6-ylmethyl)-pyridine-2-carboxylic Acid Dimethylamide]
0.25 | Cc1nc2nonc2c(N)c1Cc1ccc(C#N)c(NCC2(C)CCOC2)n1 (centres unmarked) [Example 147, 6-(7-Amino-5-methyl-[1,2,5]oxadiazolo[3,4-b]pyridin-6-ylmethyl)-2-[(3-methyl-tetrahydro-furan-3-ylmethyl)-amino]-nicotinonitrile]

— patent publication US10308667B2, “Oxadiazolopyridine derivatives for use as ghrelin O-acyl transferase (GOAT) inhibitors” (Boehringer Ingelheim International GmbH, priority 2016, dated 2019)
